Reference: BindingDB's records for doi:10.1016/j.ejmech.2019.02.016 (National Health Research Institutes, 2019)

assay: Inhibition of NS5A in HCV genotype 1b infected in human HuH7 replicon cells assessed as reduction in subgenomic viral RNA replication treated for 2 days followed by compound washout and subsequent compound dosing measured after 1 day by SEAP reporter gene assay

| EC50 | SMILES |
| --- | --- |
| 110 nM | O=C(N[C@H](C(=O)N1CCC[C@H]1c1ncc(-c2ccc(-c3ccc(-c4cnc([C@@H]5CCCN5C(=O)[C@H](NC(=O)c5cccs5)c5ccccc5)s4)cc3)cc2)s1)c1ccccc1)c1cccs1 |
| 52 nM | CC(C)(C)C(=O)N[C@H](C(=O)N1CCC[C@H]1c1ncc(-c2ccc(-c3ccc(-c4cnc([C@@H]5CCCN5C(=O)[C@H](NC(=O)C(C)(C)C)c5ccccc5)s4)cc3)cc2)s1)c1ccccc1 |
| 0.13 nM | O=C(N[C@@H](C(=O)N1CCC[C@H]1c1ncc(-c2ccc(-c3ccc(-c4cnc([C@@H]5CCCN5C(=O)[C@H](NC(=O)c5cccnc5)c5ccccc5)s4)cc3)cc2)s1)c1ccccc1)c1cccnc1 |
| 2640 nM | O=C(N[C@H](C(=O)N1CCC[C@H]1c1ncc(-c2ccc(-c3ccc(-c4cnc([C@@H]5CCCN5C(=O)[C@H](NC(=O)c5ccccn5)c5ccccc5)s4)cc3)cc2)s1)c1ccccc1)c1ccccn1 |
| 0.85 nM | CCC(=O)N[C@H](C(=O)N1CCC[C@H]1c1ncc(-c2ccc(-c3ccc(-c4cnc([C@@H]5CCCN5C(=O)[C@H](NC(=O)CC)c5ccccc5)s4)cc3)cc2)s1)c1ccccc1 |
| 159 nM | COC(=O)N[C@@H](C)C(=O)N1CCC[C@H]1c1ncc(-c2ccc(-c3ccc(-c4cnc([C@@H]5CCCN5C(=O)[C@H](C)NC(=O)OC)s4)cc3)cc2)s1 |
| 1.7 nM | O=C(N[C@H](C(=O)N1CCC[C@H]1c1ncc(-c2ccc(-c3ccc(-c4cnc([C@@H]5CCCN5C(=O)[C@H](NC(=O)c5ccco5)c5ccccc5)s4)cc3)cc2)s1)c1ccccc1)c1ccco1 |
| 0.063 nM | CCCCCC(=O)N[C@@H](C(=O)N1CCC[C@H]1c1ncc(-c2ccc(-c3ccc(-c4cnc([C@@H]5CCCN5C(=O)[C@H](NC(=O)CCCCC)c5ccccc5)s4)cc3)cc2)s1)c1ccccc1 |
| 179 nM | COC(=O)N[C@@H](CC(C)C)C(=O)N1CCC[C@H]1c1ncc(-c2ccc(-c3ccc(-c4cnc([C@@H]5CCCN5C(=O)[C@H](CC(C)C)NC(=O)OC)s4)cc3)cc2)s1 |
| 108 nM | COC(=O)N[C@H](C(=O)N1CCC[C@H]1c1ncc(-c2ccc(-c3ccc(-c4cnc([C@@H]5CCCN5C(=O)[C@H](NC(=O)OC)c5ccccc5)s4)cc3)cc2)s1)c1ccccc1 |
| 1 nM | CCN(CC)CCC(=O)N[C@@H](C(=O)N1CCC[C@H]1c1ncc(-c2ccc(-c3ccc(-c4cnc([C@@H]5CCCN5C(=O)[C@H](NC(=O)CCN(CC)CC)c5ccccc5)s4)cc3)cc2)s1)c1ccccc1 |
| 3.4 nM | CS(=O)(=O)N[C@@H](C(=O)N1CCC[C@H]1c1ncc(-c2ccc(-c3ccc(-c4cnc([C@@H]5CCCN5C(=O)[C@H](NS(C)(=O)=O)c5ccccc5)s4)cc3)cc2)s1)c1ccccc1 |
| 46 nM | O=C(N[C@@H](C(=O)N1CCC[C@H]1c1ncc(-c2ccc(-c3ccc(-c4cnc([C@@H]5CCCN5C(=O)[C@H](NC(=O)c5ccccn5)c5ccccc5)s4)cc3)cc2)s1)c1ccccc1)c1ccccn1 |
| 0.45 nM | O=C(N[C@H](C(=O)N1CCC[C@H]1c1ncc(-c2ccc(-c3ccc(-c4cnc([C@@H]5CCCN5C(=O)[C@H](NC(=O)C5CCC5)c5ccccc5)s4)cc3)cc2)s1)c1ccccc1)C1CCC1 |
| 272 nM | O=C(N[C@H](C(=O)N1CCC[C@H]1c1ncc(-c2ccc(-c3ccc(-c4cnc([C@@H]5CCCN5C(=O)[C@H](NC(=O)c5ccccc5)c5ccccc5)s4)cc3)cc2)s1)c1ccccc1)c1ccccc1 |
| 0.37 nM | O=C(N[C@H](C(=O)N1CCC[C@H]1c1ncc(-c2ccc(-c3ccc(-c4cnc([C@@H]5CCCN5C(=O)[C@H](NC(=O)c5ccncc5)c5ccccc5)s4)cc3)cc2)s1)c1ccccc1)c1ccncc1 |
| 102 nM | CN1CCN(CCC(=O)N[C@H](C(=O)N2CCC[C@H]2c2ncc(-c3ccc(-c4ccc(-c5cnc([C@@H]6CCCN6C(=O)[C@H](NC(=O)CCN6CCN(C)CC6)c6ccccc6)s5)cc4)cc3)s2)c2ccccc2)CC1 |
| 732 nM | CC(C)[C@@H](NC(=O)C1CC1)C(=O)N1CCC[C@H]1c1ncc(-c2ccc(-c3ccc(-c4cnc([C@@H]5CCCN5C(=O)[C@H](NC(=O)C5CC5)C(C)C)s4)cc3)cc2)s1 |

| SMILES | EC50 |
| --- | --- |
| CC(C)[C@H](NC(=O)Oc1ccccc1)C(=O)N1CCC[C@H]1c1ncc(-c2ccc(-c3ccc(-c4cnc([C@@H]5CCCN5C(=O)[C@@H](NC(=O)Oc5ccccc5)C(C)C)s4)cc3)cc2)s1 | 2820 nM |
